# Assay results taken from article PMC6792352, “Limited Chemical Structural Diversity Found to Modulate Thyroid Hormone Receptor in the Tox21 Chemical Library” (Environmental Health Perspectives, 2019).
# Where a name gives a salt, the structure may show the parent alone.
# Test: in vitro
# Details: rat, gh3-tre-luc cells
SMILES,CC50 at 24 h (AC50 (uM) modified / 1000) [µM],also measured
Sc1nc2ccccc2s1 [2-Mercaptobenzothiazole],> 50,
O=C(O)CCCCCCCCCCCC(=O)O [Tridecanedioic acid],> 90,
CC(=O)Nc1ccc(OC(=O)c2ccccc2O)cc1 [Acetaminosalol],> 50,
CC(C)/N=c1\cc2n(-c3ccc(Cl)cc3)c3ccccc3nc-2cc1Nc1ccc(Cl)cc1 [Clofazimine],5.75,
Nc1ncc([N+](=O)[O-])s1 [2-Amino-5-nitrothiazole],> 90,
C#CCC(Cc1cnc2nc(N)nc(N)c2n1)c1ccc(C(=O)N[C@@H](CCC(=O)O)C(=O)O)cc1 (stereo partly shown) [Pralatrexate],> 50,
C=CCCCCCCCCC(=O)OC [Methyl 10-undecenoate],> 50,
CC(=O)OCCC(C)C [3-Methylbutyl acetate],> 90,
CC(=O)c1ccc[nH]1 [2-Acetylpyrrole],> 90,
COc1c(N2CCNC(C)C2)c(F)cc2c(=O)c(C(=O)O)cn(C3CC3)c12 (stereo not shown) [Gatifloxacin],> 50,
Nc1ccc(-c2ccc(N)cc2)cc1 [Benzidine dihydrochloride],,"CC50 at 24 h (AC50 (uM) modified / 1000, Tox21_110001=Tox21_202584, viability, 1 nM T3 present, 24 h): > 50 µM"
Nc1ccc(C(=O)NCC(=O)O)cc1 [Aminohippuric acid],> 20,
COc1ccc(C=O)cc1 [4-Methoxybenzaldehyde],> 90,
Oc1ccc(Cc2ccc(O)cc2)cc1 [Bis(4-hydroxyphenyl)methane],> 90,
CC(=O)c1c(C)c([N+](=O)[O-])c(C(C)(C)C)c([N+](=O)[O-])c1C [Musk ketone],80.9,
CC(C)CC(=O)CC(C)C [Diisobutyl ketone],> 90,
CCCCCCCCCCCSCC(=O)O [3-Thiatetradecanoic acid],50.2,
C#CC(C)(C)O [2-Methyl-3-butyn-2-ol],,"CC50 at 24 h (AC50 (uM) modified / 1000, Tox21_110001=Tox21_200094, viability, 1 nM T3 present, 24 h): > 90 µM"
COc1ccc2c(c1)C(=O)N(CCc1ccc(S(=O)(=O)NC(=O)NC3CCCCC3)cc1)C(=O)C2(C)C [Gliquidone],> 20,
"O=C(O)c1cc(Br)c(O)c(Br)c1 [3,5-Dibromo-4-hydroxybenzoic acid]",> 90,
C=CCOCC(O)CO (stereo not shown) [Glycerol 1-allylether],> 90,
NC(=O)c1ncn([C@@H]2O[C@H](CO)[C@@H](O)[C@H]2O)c1N [Acadesine],> 50,
Oc1ccc2c(c1)-c1ccccc1C2 [3-Hydroxyfluorene],> 90,
CN[C@@H]1[C@@H](O)[C@@H](O[C@@H]2[C@@H](O)[C@H](O[C@H]3O[C@H](CN)[C@@H](O)[C@H](O)[C@H]3O)[C@@H](N)C[C@H]2NC(=O)[C@@H](O)CN)OC[C@]1(C)O [Isepamicin sulfate],> 50,

SMILES,CC50 at 24 h (AC50 (uM) modified / 1000) [µM],also measured
CCCCCCCCCCCCCCCCCCOCC(COP(=O)([O-])OCC[N+](C)(C)C)OC (stereo not shown) [Edelfosine],43.1,
CN(C)C(=O)Nc1cccc(C(F)(F)F)c1 [Fluometuron],> 90,
O=C(c1ccccc1)c1cc(Cl)ccc1O [(5-Chloro-2-hydroxyphenyl)phenylmethanone],> 90,
CCCC(C)CO (stereo not shown) [2-Methyl-1-pentanol],> 90,
Cn1c(=O)c2[nH]cnc2n(C)c1=O [Theophylline],> 90,
CC(C)COC(=O)CCCCC(=O)OCC(C)C [Diisobutyl adipate],> 90,
CCCCC(=O)O[C@]1(C(=O)CO)[C@@H](C)C[C@H]2[C@@H]3CCC4=CC(=O)C=C[C@]4(C)[C@@]3(F)[C@@H](O)C[C@@]21C [Betamethasone valerate],77.9,
CC(C)NCC(O)COc1ccc(CCOCC2CC2)cc1 (stereo not shown) [Betaxolol],> 50,
CC1(C)S[C@@H]2[C@H](NC(=O)Cc3ccccc3)C(=O)N2[C@H]1C(=O)O [Penicillin G potassium],> 50,
CCOP(=S)(OCC)SCSc1ccc(Cl)cc1 [Carbophenothion],,"CC50 at 24 h (AC50 (uM) modified / 1000, Tox21_110001=Tox21_113359, viability, 1 nM T3 present, 24 h): > 50 µM; CC50 at 24 h (AC50 (uM) modified / 1000, Tox21_110001=Tox21_301426, viability, 1 nM T3 present, 24 h): > 90 µM"
Nc1ccc(Cl)cc1[N+](=O)[O-] [4-Chloro-2-nitroaniline],> 90,
CCCCCC(=O)OCC [Ethyl hexanoate],> 90,
COc1cc(C(=O)NCCCCCC(=O)O)cc(OC)c1OC [Capobenic acid],> 50,
O=[N+]([O-])c1cccc2cccnc12 [8-Nitroquinoline],> 90,
OCc1cccnc1 [Nicotinyl alcohol],> 50,
"O=S(=O)(Oc1ccc(Cl)cc1Cl)c1ccccc1 [2,4-Dichlorophenyl benzenesulfonate]",> 90,
"O=C(O)CCSCCC(=O)O [3,3'-Thiodipropionic acid]",> 90,
CCOC(=O)CBr [Ethyl bromoacetate],,"CC50 at 24 h (AC50 (uM) modified / 1000, Tox21_110001=Tox21_200152, viability, 1 nM T3 present, 24 h): > 90 µM"
N=C(N)NCC1COc2ccccc2O1 (stereo not shown) [Guanoxan],> 50,
O=C(Nc1ccc2c(O)c(N=Nc3ccc(N=Nc4ccc(S(=O)(=O)O)cc4)cc3)c(S(=O)(=O)O)cc2c1)c1ccccc1 [C.I. Direct Red 81 disodium salt],35.6,
CC(C)NC(C)Cc1ccc(I)cc1 (stereo not shown) [Iofetamine hydrochloride],,"CC50 at 24 h (AC50 (uM) modified / 1000, Tox21_110001=Tox21_111239, viability, 1 nM T3 present, 24 h): > 50 µM"
COc1ccc(C(c2ccc(OC)cc2)C(Cl)(Cl)Cl)cc1 [Methoxychlor],,"CC50 at 24 h (AC50 (uM) modified / 1000, Tox21_110001=Tox21_400075, viability, 1 nM T3 present, 24 h): 76.1 µM"
Cc1ccc(O)c(-n2nc3ccccc3n2)c1 [2-(2H-Benzotriazol-2-yl)-4-methylphenol],> 90,
COc1ccc(CCN(C)CCCC(C#N)(c2cc(OC)c(OC)c(OC)c2)C(C)C)cc1OC (stereo not shown) [Gallopamil hydrochloride],21,

SMILES,CC50 at 24 h (AC50 (uM) modified / 1000) [µM],also measured
O=C(NCCc1c[nH]c2ccccc12)c1cccnc1 [Nicotredole],> 50,
CCCCCCCCCCCCCCCCCC[n+]1ccn(C)c1 [1-Methyl-3-octadecylimidazolium hexafluorophosphate],9.82,
CCCCc1oc2ccc(NS(C)(=O)=O)cc2c1C(=O)c1ccc(OCCCN(CCCC)CCCC)cc1 [Dronedarone],9.94,
CN(C)c1ccc(O)c2c1C[C@H]1C[C@H]3[C@H](N(C)C)C(O)=C(C(N)=O)C(=O)[C@@]3(O)C(O)=C1C2=O [Minocycline hydrochloride],> 90,
CC(C)C(O)(c1ccc(OC(F)(F)F)cc1)c1cncnc1 (stereo not shown) [Flurprimidol],> 90,
CC(C)(C)c1ccc(C=O)cc1 [4-tert-Butylbenzaldehyde],> 90,
c1ccc2cc3c(cc2c1)-c1cccc2cccc-3c12 [Benzo(k)fluoranthene],,"CC50 at 24 h (AC50 (uM) modified / 1000, Tox21_110001=Tox21_200721, viability, 1 nM T3 present, 24 h): > 90 µM"
ClC1=C(Cl)[C@]2(Cl)[C@H]3[C@H]([C@@H]4C=C[C@H]3C4)[C@@]1(Cl)C2(Cl)Cl [Aldrin],,"CC50 at 24 h (AC50 (uM) modified / 1000, Tox21_110001=Tox21_202072, viability, 1 nM T3 present, 24 h): 51.6 µM; CC50 at 24 h (AC50 (uM) modified / 1000, Tox21_110001=Tox21_300172, viability, 1 nM T3 present, 24 h): 46.1 µM"
CC(C)(C)c1ccccc1 [tert-Butylbenzene],> 90,
[O-][n+]1cc[n+]([O-])c2ccccc21 [Quindoxin],> 50,
c1ccc(CNCc2ccccc2)cc1 [Dibenzylamine],> 90,
O=NN1CCCCCC1 [N-Nitrosohexamethyleneimine],> 90,
O=[N+]([O-])c1ccccc1CCl [2-Nitrobenzyl chloride],,"CC50 at 24 h (AC50 (uM) modified / 1000, Tox21_110001=Tox21_200821, viability, 1 nM T3 present, 24 h): > 90 µM"
COCCc1ccc(OCC(O)CNC(C)C)cc1 (stereo not shown) [Metoprolol tartrate],> 50,
NCc1ccc(S(N)(=O)=O)cc1 [Mafenide hydrochloride],> 20,
COc1ccc(/C=C/c2cc(OC)cc(=O)o2)cc1 [Yangonin],> 40,
C[C@@H](NCCc1ccc(O)cc1)[C@@H](O)c1ccc(O)cc1 (racemic) [Ritodrine hydrochloride],> 50,
N[C@@H](C(=O)N[C@@H]1C(=O)N2C(C(=O)O)=C(Cl)CC[C@H]12)c1ccccc1 [Loracarbef monohydrate],> 50,
C=C(C)OC(C)=O [Isopropenyl acetate],> 90,
CC(C)(Oc1ccc(Cl)cc1)C(=O)O [Clofibric acid],> 50,
C1CCc2nnnn2CC1 [Pentylenetetrazol],> 50,
c1ccc2nccnc2c1 [Quinoxaline],> 90,
"CN(C)CCCN(C)C [N,N,N',N'-Tetramethyl-1,3-propanediamine]",> 5,
